This note sets out measurements from paper PMC10794144, “A novel antibiotic class targeting the lipopolysaccharide transporter” (Nature, 2024).

In data set [1] the test system is Nicotinic receptor, muscle. Kind of data set: Off-target screening (CEREP). The data set is classed as binding, human. The conditions noted are these: 10 µM, duplicates. The method, then:
(§1) Supplementary Table 1 │ Off-target activity screening f or MCP compou nds […]
(§2) The assays given in the table above were conducted at Eurofins CEREP S A (Celle-Lévescault, France) and were run as single point measurements in duplicates in the presence of 10 µ M of the test compound and reported as percent inhibition of the radioligand signal or control enzymatic activity. n.d., not

In data set [2] the test system is Nicotinic receptor, neuronal. The experiment in a line: Off-target screening (CEREP). The note with it: 10 µM, duplicates. Format: binding, human. The method, then: as §1, §2
A further data set deals with T1, Phosphodiesterase 4D2 (Homo sapiens, UniProt Q08499).
T1 construct: purchased Eurofins CEREP SA
T1 sequence (Q08499 303-809 limits assumed): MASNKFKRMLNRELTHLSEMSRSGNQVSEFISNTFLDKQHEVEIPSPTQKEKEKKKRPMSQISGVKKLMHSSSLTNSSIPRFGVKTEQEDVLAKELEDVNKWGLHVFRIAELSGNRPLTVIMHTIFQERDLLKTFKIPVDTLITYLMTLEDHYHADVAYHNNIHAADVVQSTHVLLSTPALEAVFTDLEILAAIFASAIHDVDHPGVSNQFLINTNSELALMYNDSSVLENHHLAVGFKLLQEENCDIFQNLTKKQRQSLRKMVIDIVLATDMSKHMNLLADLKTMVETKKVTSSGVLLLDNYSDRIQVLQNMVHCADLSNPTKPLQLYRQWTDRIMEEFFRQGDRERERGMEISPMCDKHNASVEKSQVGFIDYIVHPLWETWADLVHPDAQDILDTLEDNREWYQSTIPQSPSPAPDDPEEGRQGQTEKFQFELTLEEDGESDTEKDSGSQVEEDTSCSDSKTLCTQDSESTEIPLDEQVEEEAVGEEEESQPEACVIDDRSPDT
The experiment in a line: Off-target screening (CEREP). Format: biochemical. The conditions noted are these: read-out: percent inhibition. The method, then: as §1, §2

The next data set has as its system HIV-1 protease. Kind of data set: Off-target screening (CEREP). Format: biochemical. The note with it: 10 µM, duplicates. The protocol: as §1, §2
For data set [3], the target named is T2, Angiotensin converting enzyme (Homo sapiens, UniProt P12821).
T2 construct: purchased Eurofins CEREP SA
T2 sequence (P12821 30-1306): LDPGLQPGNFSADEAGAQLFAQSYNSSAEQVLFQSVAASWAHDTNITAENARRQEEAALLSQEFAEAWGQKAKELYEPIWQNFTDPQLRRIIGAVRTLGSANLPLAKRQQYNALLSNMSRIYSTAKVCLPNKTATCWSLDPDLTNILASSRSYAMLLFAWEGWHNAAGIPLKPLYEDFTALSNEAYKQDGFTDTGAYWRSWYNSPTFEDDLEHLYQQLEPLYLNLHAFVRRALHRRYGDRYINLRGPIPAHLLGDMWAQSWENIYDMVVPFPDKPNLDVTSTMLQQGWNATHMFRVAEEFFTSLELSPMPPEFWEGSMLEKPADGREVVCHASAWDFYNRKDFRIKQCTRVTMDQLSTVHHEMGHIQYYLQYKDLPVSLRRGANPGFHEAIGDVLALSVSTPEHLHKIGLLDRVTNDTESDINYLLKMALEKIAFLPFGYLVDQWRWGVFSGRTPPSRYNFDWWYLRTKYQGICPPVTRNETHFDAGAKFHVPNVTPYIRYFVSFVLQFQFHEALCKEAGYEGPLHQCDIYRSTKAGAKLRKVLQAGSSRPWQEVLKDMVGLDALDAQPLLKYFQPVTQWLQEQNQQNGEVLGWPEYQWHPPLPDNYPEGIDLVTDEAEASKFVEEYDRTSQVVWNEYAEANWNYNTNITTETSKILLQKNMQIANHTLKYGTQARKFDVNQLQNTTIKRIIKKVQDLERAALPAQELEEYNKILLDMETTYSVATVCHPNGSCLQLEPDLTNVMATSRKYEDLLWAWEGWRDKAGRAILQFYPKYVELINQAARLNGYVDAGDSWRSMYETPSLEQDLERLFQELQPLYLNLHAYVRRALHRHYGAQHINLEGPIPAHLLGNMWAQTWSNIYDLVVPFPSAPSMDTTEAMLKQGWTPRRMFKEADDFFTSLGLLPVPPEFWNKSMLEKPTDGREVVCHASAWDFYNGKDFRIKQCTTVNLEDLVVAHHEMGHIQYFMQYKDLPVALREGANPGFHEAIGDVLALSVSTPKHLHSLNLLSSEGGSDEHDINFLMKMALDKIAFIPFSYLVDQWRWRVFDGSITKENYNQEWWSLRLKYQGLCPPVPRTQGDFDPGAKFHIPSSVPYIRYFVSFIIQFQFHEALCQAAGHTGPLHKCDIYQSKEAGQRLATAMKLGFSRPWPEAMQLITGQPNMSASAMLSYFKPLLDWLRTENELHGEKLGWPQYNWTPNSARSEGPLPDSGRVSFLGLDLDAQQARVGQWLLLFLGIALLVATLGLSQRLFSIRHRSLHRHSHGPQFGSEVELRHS
The experiment in a line: Off-target screening (CEREP). Format: biochemical. The note with it: read-out: percent inhibition. The protocol: as §1, §2

A further data set concerns the target T3, Acetylcholinesterase (Homo sapiens, UniProt P22303).
T3 construct: purchased Eurofins CEREP SA
Kind of data set: Off-target screening (CEREP). The data set is classed as biochemical. The conditions noted are these: read-out: percent inhibition. The protocol: as §1, §2

Another data set concerns the target T4, Monoamine oxidase-A (Homo sapiens, UniProt P21397).
T4 construct: purchased Eurofins CEREP SA
T4 sequence (P21397 1-527): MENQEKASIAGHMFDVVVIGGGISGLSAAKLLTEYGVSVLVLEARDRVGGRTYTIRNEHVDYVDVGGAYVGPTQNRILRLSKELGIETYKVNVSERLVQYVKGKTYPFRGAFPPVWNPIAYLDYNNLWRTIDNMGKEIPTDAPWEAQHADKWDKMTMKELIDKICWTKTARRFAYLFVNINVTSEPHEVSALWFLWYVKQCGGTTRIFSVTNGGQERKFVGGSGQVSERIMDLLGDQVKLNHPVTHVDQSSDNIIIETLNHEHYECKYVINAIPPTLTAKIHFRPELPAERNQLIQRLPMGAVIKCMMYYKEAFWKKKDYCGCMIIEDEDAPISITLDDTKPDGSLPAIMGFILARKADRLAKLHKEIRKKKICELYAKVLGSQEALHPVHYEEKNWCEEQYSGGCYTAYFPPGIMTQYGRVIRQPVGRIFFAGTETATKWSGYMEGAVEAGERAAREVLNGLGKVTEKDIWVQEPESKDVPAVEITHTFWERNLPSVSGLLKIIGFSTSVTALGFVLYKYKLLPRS
The experiment in a line: Off-target screening (CEREP). The note with it: read-out: percent inhibition. The data set is classed as biochemical. The protocol:
as §1, §2

In a further data set the target is T5, Muscarinic receptor M2 (Homo sapiens, UniProt P08172).
T5 construct: purchased Eurofins CEREP SA
T5 sequence (P08172 1-466): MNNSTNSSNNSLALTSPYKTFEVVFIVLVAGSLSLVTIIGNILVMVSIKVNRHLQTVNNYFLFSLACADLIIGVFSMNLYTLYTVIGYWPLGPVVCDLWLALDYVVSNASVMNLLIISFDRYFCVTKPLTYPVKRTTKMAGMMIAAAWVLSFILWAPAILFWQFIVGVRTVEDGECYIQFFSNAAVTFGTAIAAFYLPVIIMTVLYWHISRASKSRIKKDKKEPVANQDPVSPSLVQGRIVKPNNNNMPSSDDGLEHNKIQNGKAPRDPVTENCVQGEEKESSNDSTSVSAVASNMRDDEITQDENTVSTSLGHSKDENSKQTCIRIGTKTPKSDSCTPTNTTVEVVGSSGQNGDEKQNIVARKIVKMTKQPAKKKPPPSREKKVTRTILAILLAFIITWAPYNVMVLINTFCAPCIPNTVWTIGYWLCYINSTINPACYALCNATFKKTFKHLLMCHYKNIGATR
Kind of data set: Off-target screening (CEREP). The data set is classed as binding. The note with it: read-out: percent inhibition. Summed up:
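Test compound was screened at 10 µM as a single-point measurement in duplicate. Values are percent inhibition of radioligand signal for binding assays or of control enzymatic activity for enzyme assays.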

For data set [4], the system named is GABA-A (benzodiazapine binding site). The experiment in a line: Off-target screening (CEREP). The conditions noted are these: 10 µM, duplicates. Further details: species or system rat. The protocol:
as §1, §2

The test system of another data set is C. albicans ATCC 90028. Kind of data set: microbe, parasite or virus in culture. The note with it: Candida albicans, ATCC90028.
Another data set concerns S. aureus ATCC 29213. Kind of data set: organism not typed. The note with it: for RO7223280 MIC 100%: S. aureus ATCC 29213, read at 100%. The protocol:
MIC determinations were performed using the broth microdilution method and in line with CLSI guidelines M07 and M100 (refs. [37],[38]). Bacterial inocula were prepared by diluting a 0.5 McFarland suspension in CAMHB or lysogeny broth (LB) specifically for A. baylyi isolates. […] MIC values of all of the tested antibiotics were read as the lowest compound concentration inhibiting bacterial growth by naked eye or beyond which the OD600 ceased to decrease.

Another data set has as its system HEK293 cells. Kind of data set: Cell-viability assay (CellTiterGlo). Format: cell-based. The note with it: Homo sapiens, 24 h, 37 °C, 3.125–100 μM, n = 2. The protocol: Compounds were prepared in serial dilutions (3.125–100 μM in 1% DMSO) and transferred to 384-well plates together with a positive (Staurosporine) and a negative (no compound) control. In total, 25 μl of HEK293 cells (ATCC; verified by short tandem repeat PCR and mycoplasma negative) (50,000 cells per ml) were added in either low-serum-containing (0.5% fetal bovine serum (FBS)) or high-serum-containing (12.5% FBS, 1% BSA) medium (Dulbecco’s modified Eagle medium (DMEM), glucose, L-glutamine). The plates were incubated for 24 h at 37 °C and a mixture of CellTiterGlo and DMEM was added to the plates. After incubation at room temperature, the luminescence signal was read using a BioTeK reader and a calculated IC50 was derived from the data.
A general note: Cellular ATP, detected with luciferase, serves as a proxy for viable cell number.

Bounds are passed on as bounds.

T3 sequence (P22303 32-614): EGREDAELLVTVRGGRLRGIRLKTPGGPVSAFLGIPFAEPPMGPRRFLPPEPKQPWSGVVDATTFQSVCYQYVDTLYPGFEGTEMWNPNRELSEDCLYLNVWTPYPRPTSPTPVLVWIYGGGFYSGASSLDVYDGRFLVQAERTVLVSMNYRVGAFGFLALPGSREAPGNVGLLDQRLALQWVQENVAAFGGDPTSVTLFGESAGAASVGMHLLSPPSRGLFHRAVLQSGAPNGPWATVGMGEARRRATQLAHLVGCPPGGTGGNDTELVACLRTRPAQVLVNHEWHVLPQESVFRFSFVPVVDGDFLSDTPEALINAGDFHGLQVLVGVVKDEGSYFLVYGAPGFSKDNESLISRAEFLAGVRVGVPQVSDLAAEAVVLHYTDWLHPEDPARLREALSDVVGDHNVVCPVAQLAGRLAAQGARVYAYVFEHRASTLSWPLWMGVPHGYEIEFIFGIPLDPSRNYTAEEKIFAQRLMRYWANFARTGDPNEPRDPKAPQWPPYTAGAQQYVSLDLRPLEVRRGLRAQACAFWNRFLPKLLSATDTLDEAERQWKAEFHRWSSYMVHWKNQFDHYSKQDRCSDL

As a reminder, the inhibition is the drop in the measured response relative to a control, in per cent. For orientation: IC50 means the concentration needed to halve the response being measured. Read a high IC50 as lower potency. On to `CN1C(=O)[C@H](CCCCN)NC(=O)[C@H](CCCN)NCc2cccnc2Sc2cccc(-c3ccc(C(=O)O)cc3)c2CNC(=O)[C@@H]1Cc1c[nH]c2ccccc12` [zosurabalpin], for which the percent inhibition in data set [1] is listed as -16%; in data set [2] it was -11%; in the data set on HIV-1 protease, 16%; in data set [4], -1%. The inhibition at 10 µM was 12% on Phosphodiesterase 4D2; -16% in data set [3]; 13% on Acetylcholinesterase; 2% at Monoamine oxidase-A; 17% at Muscarinic receptor M2. For the same compound, the MIC is above 64 µg/mL in the data set with C. albicans ATCC 90028 and above 64 µg/mL with S. aureus ATCC 29213 (Staphylococcus aureus, ATCC29213). Besides, the Ames entry in the data set “Ames” is recorded as “Negative”. In addition, the “RO7223280 MIC 100%” value in the data set with S. aureus ATCC 29213 (Study LGC296813), in the data set with S. aureus ATCC 29213 (Study LGC299544) and with S. aureus ATCC 29213 (Study LGC308175) was above 64 µg/mL in each case. Moreover, the half-maximal inhibitory concentration (IC50) with HEK293 cells was above 100 µM.
